Measured values published in patent US11028090B2 (Dong Wha Pharm. Co., Ltd., priority 2017, dated 2021).
Read-outs that look alike come from different tables or passages of the source.

Tests used:
[1] = molecular target: BRD4 (BD1+BD2) bromodomain (Homo sapiens (Human), UniProt O60885); assay: BRD4 binding inhibition (AlphaScreen, GST-BRD4 vs tetraacetylated histone H4 peptide)
Outline: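 AlphaScreen read after 30 min dark incubation at room temperature with glutathione acceptor/streptavidin donor beads (10 μg/ml each). The beads were added to compound plus 100 nM biotin-H4 (K5,8,12,16-acetyl) peptide and 100 nM GST-BRD4 BD1+BD2 in pH 7.4 HEPES/Tween/BSA/DTT buffer.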

[2] = tested on: acute myelogenous leukemia cells (MV-4-11 cells); assay: Cytotoxicity to acute myelogenous leukemia cells (MV-4-11 cells), CCK-8; conditions: Homo sapiens, MV4-11, 72 h
[3] = GST-BRD4 (BD1+BD2) / biotinylated acetyl-histone H4 (Lys5,8,12,16) peptide, read-out: IC50, BRD4 binding inhibition
[4] = GST-BRD4 (BD1+BD2) vs biotinylated acetyl-histone H4 peptide, AlphaScreen, read-out: BRD4 IC50
[5] = read-out: MV-4-11 Cytotoxicity IC50
[6] = read-out: IC50, cytotoxicity against acute myelogenous leukemia cells

IC50 [1, 3] [nM] | IC50 [1, 4] [nM] | SMILES | IC50 [2, 5] [nM] | IC50 [2, 6] [nM]
≤ 50 | 40 | COCCOc1cc2nc(NCCCCNC(=O)c3ccc(C)nc3Cl)c3nnc(C)n3c2cc1OCCOC [Example 172, N-{4-[7,8-bis-(2-methoxy-ethoxy)-1-methyl-[1,2,4]triazolo[4,3-a]quinoxaline-4-ylamino]-butyl}-2-chloro-6-methyl-nicotinamide] | 280 | –
– | 51 | C/C=C/C(=O)NCCCCNc1nc2cc(OC)ccc2n2c(C)nnc12 [Example 283, butene-2-oic acid-[4-(7-methoxy-1-methyl-[1,2,4]triazolo[4,3-a]quinoxaline-4-ylamino)-butyl]-amide] | 176 | –
≤ 50 | 13 | COCCOc1ccc2c(c1)nc(NCCCCNC(=O)c1ccccc1)c1nnc(C)n12 [Example 408, N-{4-[7-(2-methoxy-ethoxy)-1-methyl-[1,2,4]triazolo[4,3-a]quinoxaline-4-ylamino]-butyl}-benzamide] | 620 | –
≤ 50 | 16 | COc1cc(N)c(NC(=O)c2ccc3c(c2)nc(NCCCCNC(=O)CC(C)C)c2nnc(C)n23)cc1OC [Example 217, 1-methyl-4-[4-(3-methyl-butyrylamino)-butylamino]-[1,2,4]triazolo[4,3-a]quinoxaline-7-carboxylic acid-(2-amino-4,5-dimethoxy-phenyl)-amide] | 256 | –
≤ 50 | 19 | CCC(C)C(=O)NCCCCNc1nc2cc(OC(C)C)ccc2n2c(C)nnc12 (centres unmarked) [Example 450, N-[4-(7-isopropoxy-1-methyl-[1,2,4]triazolo[4,3-a]quinoxaline-4-ylamino)-butyl]-2-methyl-butyramide] | 270 | –
≤ 10 | 3 | COCCOc1ccc2c(c1)nc(NCCCCNC(=O)CCC1CCCC1)c1nnc(C)n12 [Example 393, 3-cyclopentyl-N-{4-[7-(2-methoxy-ethoxy)-1-methyl-[1,2,4]triazolo[4,3-a]quinoxaline-4-ylamino]-butyl}-propionamide] | 170 | ≤ 200
≤ 50 | 11 | CCCOC(=O)N[C@H](C(=O)NCCCCNc1nc2cc(OC)ccc2n2c(C)nnc12)C(C)C [Example 319, (S)-{1-[4-(7-methoxy-1-methyl-[1,2,4]triazolo[4,3-a]quinoxaline-4-ylamino)-butylcarbamoyl]-2-methyl-propyl}-carbamic acid propylester] | 114 | ≤ 200
≤ 50 | 38 | Cc1nnc2c(NCCCCNC(=O)c3ccccc3Cl)nc3cc(OCCN4CCOCC4)ccc3n12 [Example 439, 2-chloro-N-{4-[1-methyl-7-(2-morpholine-4-yl-ethoxy)-[1,2,4]triazolo[4,3-a]quinoxaline-4-ylamino]-butyl}-benzamide] | 100 | ≤ 200
≤ 10 | 1 | Cc1nnc2c(NCCCCNC(=O)CC(C)C)nc3cc(-c4nc5ccccc5n4C)ccc3n12 [Example 222, 3-methyl-N-{4-[1-methyl-7-(1-methyl-1H-benzoimidazole-2-yl)-[1,2,4]triazolo[4,3-a]quinoxaline-4-ylamino]-butyl}-butyramide] | 53 | ≤ 200
– | 58 | COc1cc2nc(NCCCCNC(=O)OCC(C)C)c3nnc(C(C)C)n3c2cc1OC [Example 602, [4-(1-isopropyl-7,8-dimethoxy-[1,2,4]triazolo[4,3-a]quinoxaline-4-ylamino)-butyl]-carbamic acid isobutylester] | 290 | –
≤ 50 | 25 | Cc1nnc2c(NCCCCNC(=O)OC(C)(C)C)nc3cc(-c4nc5ccccc5[nH]4)ccc3n12 [Example 218, {4-[7-(1H-benzoimidazole-2-yl)-1-methyl-[1,2,4]triazolo[4,3-a]quinoxaline-4-ylamino]-butyl}-carbamic acid-tert-butylester] | 320 | –
≤ 50 | 12 | CCC(C)CC(=O)NCCCCNc1nc2cc(OC)ccc2n2c(C)nnc12 (centres unmarked) [Example 289, 3-methyl-pentanoic acid-[4-(7-methoxy-1-methyl-[1,2,4]triazolo[4,3-a]quinoxaline-4-ylamino)-butyl]-amide] | 26 | ≤ 200
≤ 50 | 23 | CCC(CC)C(=O)NCCCCNc1nc2cc(OC)ccc2n2c(C)nnc12 [Example 290, 2-ethyl-N-[4-(7-methoxy-1-methyl-[1,2,4]triazolo[4,3-a]quinoxaline-4-ylamino)-butyl]-butyramide] | 150 | ≤ 200
≤ 10 | 9 | CCC(C)CC(=O)NCCCCNc1nc2cc(N3CCOCC3)ccc2n2c(C)nnc12 (centres unmarked) [Example 501, 3-methyl-pentanoic acid-[4-(1-methyl-7-morpholine-4-yl-[1,2,4]triazolo[4,3-a]quinoxaline-4-ylamino)-butyl]-amide] | 60 | ≤ 200
≤ 50 | – | COc1cc2nc(NCCCCNC(=O)c3ccccc3OC)c3nnc(C)n3c2cc1OC [Example 97, N-[4-(7,8-dimethoxy-1-methyl-[1,2,4]triazolo[4,3-a]quinoxaline-4-ylamino)-butyl]-2-methoxy-benzamide] | 510 | –
≤ 50 | 50 | CCCNc1ccc2c(c1)nc(NCCCCNC(=O)CC(C)C)c1nnc(C)n12 [Example 253, 3-methyl-N-[4-(1-methyl-7-propylamino-[1,2,4]triazolo[4,3-a]quinoxaline-4-ylamino)-butyl]-butyramide] | 235 | –
≤ 50 | 19 | CCc1nnc2c(NCCCCNC(=O)OC(C)C)nc3cc(OC)c(OC)cc3n12 [Example 596, [4-(1-ethyl-7,8-dimethoxy-[1,2,4]triazolo[4,3-a]quinoxaline-4-ylamino)-butyl]-carbamic acid isopropylester] | 510 | –
≤ 10 | 9 | COc1cc2nc(NCCCCNC(=O)Cc3cccs3)c3nnc(C)n3c2cc1C(F)(F)F [Example 480, N-[4-(7-methoxy-1-methyl-8-trifluoromethyl-[1,2,4]triazolo[4,3-a]quinoxaline-4-ylamino)-butyl]-2-thiophene-2-yl-acetamide] | 80 | ≤ 200
≤ 50 | 16 | COCCOc1ccc2c(c1)nc(NCCCCNC(=O)OC(C)C)c1nnc(C)n12 [Example 366, {4-[7-(2-methoxy-ethoxy)-1-methyl-[1,2,4]triazolo[4,3-a]quinoxaline-4-ylamino]-butyl}-carbamic acid isopropylester] | 110 | ≤ 200
– | 57 | COc1cc2nc(NCCCCNC(=O)CC(C)C)c3nnc(C)n3c2cc1NO [Example 558, N-[4-(8-hydroxyamino-7-methoxy-1-methyl-[1,2,4]triazolo[4,3-a]quinoxaline-4-ylamino)-butyl]-3-methyl-butyramide] | 87 | ≤ 200
≤ 50 | 15 | Cc1nnc2c(NCCCCNC(=O)CC(C)C)nc3cc(N4CCc5sccc5C4)ccc3n12 [Example 528, N-{4-[7-(6,7-dihydro-4H-thiano[3,2-c]pyridine-5-yl)-1-methyl-[1,2,4]triazolo[4,3-a]quinoxaline-4-ylamino]-butyl}-3-methyl-butyramide] | 203 | –
≤ 50 | 26 | Cc1nnc2c(NCCCCNC(=O)[C@@H](NS(C)(=O)=O)C(C)C)nc3cc(N4CCOCC4)ccc3n12 [Example 505, 2-(S)-methanesulfonylamino-3-methyl-N-[4-(1-methyl-7-morphonyl-4-yl-[1,2,4]triazolo[4,3-a]quinoxaline-4-ylamino)-butyl]-butyramide] | 533 | –
≤ 50 | 40 | Cc1nnc2c(NCCCCNC(=O)[C@@H](F)C(C)C)nc3cc(N4CCOCC4)ccc3n12 [Example 500, 2-(S)-fluoro-3-methyl-N-[4-(1-methyl-7-morpholine-4-yl-[1,2,4]triazolo[4,3-a]quinoxaline-4-ylamino)-butyl]-butyramide] | 98 | ≤ 200
≤ 50 | 43 | COc1ccc2c(c1)nc(NCCCCNC(=O)C(N)C(C)C)c1nnc(C)n12 (centres unmarked) [Example 311, 2-amino-N-[4-(7-methoxy-1-methyl-[1,2,4]triazolo[4,3-a]quinoxaline-4-ylamino)-butyl]-3-methyl-butyramide] | 208 | –
≤ 50 | 17 | Cc1nnc2c(NCCCCNC(=O)OC(C)(C)C)nc3cc4c(cc3n12)OCCO4 [Example 178, [4-(1-methyl-8,9-dihydro-7,10-dioxa-2,3,5,11b-tetraaza-cyclopenta[a]anthracene-4-ylamino)-butyl]-carbamic acid-tert-butylester] | 440 | –
≤ 50 | 49 | Cc1nnc2c(NCCCCNC(=O)CC(C)C)nc3cc(NS(=O)(=O)CC(F)(F)F)ccc3n12 [Example 258] | 345 | –
≤ 50 | 16 | COc1ccc2c(c1)nc(NCCCCC(=O)NCc1ccco1)c1nnc(C)n12 [Example 657] | 80 | ≤ 200
≤ 50 | 27 | Cc1nnc2c(NCCCCNC(=O)CC(C)C)nc3cc(OC(C)C)ccc3n12 [Example 449, N-[-(7-isopropoxy-1-methyl-[1,2,4]triazolo[4,3-a]quinoxaline-4-ylamino)-butyl]-3-methyl-butyramide] | 300 | –
